The structures appear in SMILES notation.

The term Ki denotes the dissociation constant of the complex between target and ligand, obtained from inhibition or displacement.

For this assay, the target named is active HPK1 (SignalChem M23-11G) (Homo sapiens (Human), UniProt Q92918). The assay is described as follows: HPK1 Kinase Binding Assay. Particulars: LanthaScreen tracer 222 / Eu-Anti GST antibody, one hour incubation at 25° C. The method, then: A stock solution of 1 mM test compound was prepared in DMSO. The compound plate was prepared by 3-fold and 11-point serial dilutions. 0.1 μL of the compound in DMSO was transferred from the compound plate to the white 384 well polystyrene plates. The assay buffer contained 50 mM HEPES, pH 7.5, 0.01% Tween-20, 5 mM MgCl2, 0.01% BSA, and 5 mM DTT. 5 μL of 4 nM active HPK1 (SignalChem M23-11G) prepared in the buffer was added to the plate. The enzyme concentration given was based on the given stock concentration reported by the vender. 5 μl of 18 nM tracer 222 (ThermoFisher PV6121) and 4 nM LanthaScreen Eu-Anti GST antibody (ThermoFisher PV5595) were added. After one hour incubation at 25° C., the plates were read on a PHERAstar FS plate reader (BMG Labtech). Ki values were determined.
Chain of active HPK1 (SignalChem M23-11G) (Q92918 1-346 limits assumed): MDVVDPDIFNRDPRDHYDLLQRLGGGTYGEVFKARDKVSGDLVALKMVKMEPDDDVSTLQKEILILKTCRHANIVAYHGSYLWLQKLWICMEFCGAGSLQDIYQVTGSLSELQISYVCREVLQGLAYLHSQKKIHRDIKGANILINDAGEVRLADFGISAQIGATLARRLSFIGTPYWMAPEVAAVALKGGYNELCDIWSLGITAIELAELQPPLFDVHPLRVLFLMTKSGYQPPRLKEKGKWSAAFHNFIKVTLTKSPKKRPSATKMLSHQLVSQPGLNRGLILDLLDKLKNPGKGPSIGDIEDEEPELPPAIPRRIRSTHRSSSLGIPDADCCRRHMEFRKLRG
On the technique in general: In TR-FRET formats the signal depends on donor and acceptor labels being close together.
Consider `COc1cccc(F)c1-c1nccc(C(=O)Nc2ccc3c(nc(C)n3C)c2N2C[C@H](N)C[C@H]2CO)n1` [Example 15, N-(4-((2S,4R)-4-Amino-2-(hydroxymethyl)pyrrolidin-1-yl)-1,2-dimethyl-1H-benzo[d]imidazol-5-yl)-2-(2-fluoro-6-methoxyphenyl)pyrimidine-4-carboxamide], for which the Ki was at most 0.1 µM.

`COc1cccc(F)c1-c1nccc(C(=O)Nc2ccc3c(nc(C(C)C)n3C)c2N2C[C@@H]3C[C@H]2CN3)n1` [Example 17, N-(4-((1S,4S)-2,5-Diazabicyclo[2.2.1]heptan-2-yl)-2-isopropyl-1-methyl-1H-benzo[d]imidazol-5-yl)-2-(2-fluoro-6-methoxyphenyl)pyrimidine-4-carboxamide] returned an inhibitory constant (Ki) of at most 0.1 µM.

In turn, `COc1ccc(-n2ccc3c(N4C[C@@H](N)C[C@H]4CO)c(NC(=O)c4ccnc(-c5c(F)cccc5OC)n4)ccc32)c(F)c1` [Example 45, N-(4-((2S,4S)-4-Amino-2-(hydroxymethyl)pyrrolidin-1-yl)-1-(2-fluoro-4-methoxyphenyl)-1H-indol-5-yl)-2-(2-fluoro-6-methoxyphenyl)pyrimidine-4-carboxamide] returned a Ki of at most 0.1 µM.

These data come from patent US11299473B2, “Benzimidazole and indole compounds and uses thereof” (Incyte Corporation, priority 2018, dated 2022).
